Source: patent US10336790B2 (priority 2014, dated 2019)
Ends that are not written are not given here.

Key:
macrophage J774.16 cells = test: Peptide cytotoxicity, Trypan Blue exclusion assay; assay type: cell-based, mouse; conditions: for cell death: 170 μM peptide, negative control 10%
Method: (§1) Cytotoxicity studies were performed using three mammalian cell lines which included mouse macrophage J774.16 cell line, human lung epithelial A549 cell line, and sheep red blood cells (sRBCs) in Trypticase soy agar (TSA). Mouse macrophage J774.16 cell line (maintained in antibiotic-free Dulbecco's modified Eagle's medium containing 20% fetal bovine serum, 5% NCTC 109, 1% nonessential amino acids and 1% glutamine) or human lung epithelial A549 cell line (maintained in antibiotic-free Ham's F12 medium supplemented with 10% fetal bovine serum) was seeded at a density of approximately 1×10^5 cells per ml in Lab-tek Permanox eight-chamber microscopy slides (Nunc, Inc., Naperville, Ill.) and incubated for 3 (J774.16) or 5 (A549) days before use. After cell differentiation to a confluence of 70 to 80%, the culture media was replaced with fresh media containing the different AMPS at 64 μg/ml or at toxic dose (320 μg/ml) or controls (media only for negative control or 50 μM NaN3 for positive control). Similarly, AMPS or 1% Triton 100-X as positive control or media only (negative control) was each added to separate wells and allowed to be absorbed into agar at room temperature. All experiments were incubated for 24 hr at 37° C., 5% CO2. All experiments were done in duplicates. Cytotoxicity for J774.16 or A549 cells was monitored using Trypan Blue exclusion assay and the ratio of dead to viable cells was recorded. For sRBCs, the presence of cell lysis after 24 hr of incubation at 37° C. following treatment indicated cytotoxicity.

[1] = system: lung epithelial A549 cell line; test: Peptide cytotoxicity, Trypan Blue exclusion assay; assay type: cell-based, human
Method: as §1

[2] = system: M. tuberculosis strain MC26230
[3] = 170 μM peptide concentration, compared with the negative control

Row | Substance | cytotoxic concentration (320 μg/mL) relative to MIC against mycobacteria and streptococci (macrophage J774.16 cells) | cell death (macrophage J774.16 cells; 24 hr) [%] | cytotoxicity (macrophage J774.16 cells; 320 μg/mL, 24 hr) | cytotoxicity [1, 3] | cytotoxicity ([1]; milder than on J774.16 cells, concentration not restated (320 μg/mL in preceding sentence)) | MIC (M. tuberculosis MC26020) [µg/mL] | MIC [2] [µg/mL]
1 | ILSLRWRWWKWKK-NH2 [Peptide B3, ILSLRWRWWKWKK] | at least five times the MIC | 40 | moderate cytotoxicity | Slight cytotoxicity | some degree of cytotoxicity | 8 | 64
2 | ILSLRWRWKWWKK-NH2 [Peptide B1, ILSLRWRWKWWKK] |  |  |  |  |  | 32 | 
3 | ILSLRWWRKWWKK-NH2 [Peptide B2, ILSLRWWRKWWKK] |  | 20 |  | Slight cytotoxicity |  | 32 | 
4 | IRKLKSWKWLRWL-NH2 [Peptide B4, IRKLKSWKWLRWL] |  |  |  |  |  | 32 | 
